According to publication PMC4597782 (Nature, 2015):
One block for each compound: values may come before it.

Legend:
mGluR2 [1] = target: T1, mGluR2 (Rattus norvegicus, UniProt P31421); assay type: biochemical
mGluR2 [2] = target: T1, mGluR2; assay type: cell-based; settings: normalized to response to 1 mM glutamate
mGluR3 [3] = target: T2, mGluR3 (Rattus norvegicus, UniProt P31422); assay type: biochemical; settings: for average active state lifetime: 2 mM Ca2+ or 100 nM glutamate
[4] = target: mGluR2 WT/YADA heterodimer (Rattus norvegicus, UniProt P31421, D295A/Y216A); assay: smFRET of mGluR2 WT/YADA heterodimers; assay type: biochemical; settings: near-saturating glutamate for the WT subunit
mGluR3 [5] = target: T2, mGluR3; assay type: cell-based; settings: read-out: EC50 of glutamate-dependent decrease in ensemble FRET; HEK293T cells
[6] = target: mGluR2-YADA (Y216A and D295A) (Rattus norvegicus, UniProt P31421, D295A/Y216A); assay: smFRET of glutamate-insensitive mutant mGluR2-YADA; assay type: biochemical; settings: 50 μM or 1 mM glutamate
mGluR2-YADA (Y216A and D295A), sequence (P31421 19-872 Y216A/D295A): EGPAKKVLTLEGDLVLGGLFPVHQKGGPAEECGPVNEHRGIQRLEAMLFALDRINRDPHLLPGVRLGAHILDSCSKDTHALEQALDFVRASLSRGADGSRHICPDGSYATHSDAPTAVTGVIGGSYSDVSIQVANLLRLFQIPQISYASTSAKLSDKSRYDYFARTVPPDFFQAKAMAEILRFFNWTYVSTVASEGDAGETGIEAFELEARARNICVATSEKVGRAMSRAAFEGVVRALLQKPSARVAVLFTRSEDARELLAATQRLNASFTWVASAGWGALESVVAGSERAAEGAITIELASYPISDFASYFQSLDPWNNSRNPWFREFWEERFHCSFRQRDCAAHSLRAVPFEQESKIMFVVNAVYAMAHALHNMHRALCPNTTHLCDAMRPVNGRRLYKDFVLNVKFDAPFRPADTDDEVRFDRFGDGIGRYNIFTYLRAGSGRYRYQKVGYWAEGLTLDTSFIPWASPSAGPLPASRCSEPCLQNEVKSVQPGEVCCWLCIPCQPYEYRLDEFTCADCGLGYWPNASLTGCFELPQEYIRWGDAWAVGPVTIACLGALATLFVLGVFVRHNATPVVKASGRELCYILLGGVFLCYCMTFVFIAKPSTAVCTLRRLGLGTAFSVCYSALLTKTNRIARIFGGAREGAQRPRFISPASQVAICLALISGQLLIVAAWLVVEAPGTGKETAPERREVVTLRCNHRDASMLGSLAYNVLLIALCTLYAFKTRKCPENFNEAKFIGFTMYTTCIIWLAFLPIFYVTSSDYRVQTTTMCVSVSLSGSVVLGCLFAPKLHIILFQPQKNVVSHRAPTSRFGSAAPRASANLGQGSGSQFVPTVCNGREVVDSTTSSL
mGluR2-YADA (Y216A and D295A), sequence (P31421 19-872 Y216A/D295A): as above

T2 sequence (P31422 23-879): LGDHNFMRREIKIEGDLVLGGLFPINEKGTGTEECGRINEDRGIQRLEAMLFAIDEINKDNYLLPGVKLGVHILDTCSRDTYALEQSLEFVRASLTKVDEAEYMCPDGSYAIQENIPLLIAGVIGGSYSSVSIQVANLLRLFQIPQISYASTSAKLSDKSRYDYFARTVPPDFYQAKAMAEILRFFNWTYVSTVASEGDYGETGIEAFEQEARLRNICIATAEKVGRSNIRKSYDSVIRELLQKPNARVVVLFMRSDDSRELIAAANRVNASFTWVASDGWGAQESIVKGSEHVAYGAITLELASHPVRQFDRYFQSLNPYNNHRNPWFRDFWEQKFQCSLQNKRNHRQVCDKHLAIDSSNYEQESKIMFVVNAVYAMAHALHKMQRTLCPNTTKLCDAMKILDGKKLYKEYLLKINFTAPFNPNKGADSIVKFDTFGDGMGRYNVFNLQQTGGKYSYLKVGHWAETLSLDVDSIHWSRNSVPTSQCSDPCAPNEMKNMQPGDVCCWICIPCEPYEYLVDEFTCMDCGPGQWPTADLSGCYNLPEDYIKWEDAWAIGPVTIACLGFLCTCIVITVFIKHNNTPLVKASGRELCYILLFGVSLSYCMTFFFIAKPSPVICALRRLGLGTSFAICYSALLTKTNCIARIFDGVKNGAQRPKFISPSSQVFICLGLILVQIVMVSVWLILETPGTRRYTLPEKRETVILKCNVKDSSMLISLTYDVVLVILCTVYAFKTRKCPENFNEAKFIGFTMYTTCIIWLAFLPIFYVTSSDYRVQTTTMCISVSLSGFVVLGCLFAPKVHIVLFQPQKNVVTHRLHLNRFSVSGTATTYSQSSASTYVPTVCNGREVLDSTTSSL
T2 sequence (P31422 23-879): as above
T1 sequence (P31421 19-872): as the sequence (P31421 19-872 Y216A/D295A) above, with A198Y, A277D counted along it
T1 sequence (P31421 19-872): as the sequence (P31421 19-872 Y216A/D295A) above, with A198Y, A277D counted along it
mGluR2 WT/YADA heterodimer, sequence (P31421 19-872, stated change not applied): as the sequence (P31421 19-872 Y216A/D295A) above, with A198Y, A277D counted along it
mGluR2 WT/YADA heterodimer, sequence (P31421 19-872 Y216A/D295A): as the sequence (P31421 19-872 Y216A/D295A) above

Structure (SMILES): COc1ccccc1Oc1ccc(N(Cc2cccnc2)S(=O)(=O)CC(F)(F)F)cc1 [LY48739, LY487379]
- effect on relative occupancy of the low FRET state (mGluR2 [1]; in the presence of DCG-IV (1 μM)): increased the relative occupancy of the low FRET state
- effect on DCG-IV response in ensemble FRET (mGluR2 [2]): increases the apparent affinity and efficacy of DCG-IV

Structure (SMILES): N[C@@]1(C(=O)O)CO[C@H]2[C@H](C(=O)O)[C@H]21 [LY379268]
- occupancy of the active (low FRET) state (mGluR2 [1]; saturating agonist, compared with glutamate): more complete occupancy of the active state than glutamate

- share of distribution remaining in the high and medium FRET states (mGluR2 [1]; saturating concentrations (≥100 μM)): ~ 30%
Structure (SMILES): N[C@H](C(=O)O)C1[C@@H](C(=O)O)[C@@H]1C(=O)O (some centres unmarked) [DCG-IV]

- average active state lifetime (mGluR3 [3]): 183 ms
Structure (SMILES): [Ca+2] [Ca^2+]
- effect on low FRET state occupancy (mGluR3 [3]; 0 glutamate): concentration-dependent increase in low FRET state occupancy

- occupancy of the medium FRET state [4]: ~ 55%
- maximal medium FRET occupancy (mGluR2 [1]; WT/WT homodimer): ~ 25%
- EC50 (mGluR3 [5]): 500 ± 200 nM
- effect on the FRET histogram [6]: no effect
- average active state lifetime (mGluR3 [3]): 183 ms
Structure (SMILES): N[C@@H](CCC(=O)O)C(=O)O [glutamate]
